PMC8537327, “EGFR-Targeted Pentacyclic Triterpene Analogues for Glioma Therapy” (International Journal of Molecular Sciences, 2021)
One block for each molecule: values may come before it.

How the values were obtained:
[1] = system: U251 human glioblastoma cells; assay: MTT cytotoxicity assay, U251 cells; format: cell-based; details: for IC50: Homo sapiens, U-251, MTT, 72 h; for anticancer activity against U251 cells: at 100 µM concentration
Description: (§1) U251, T98G (Japanese Collection of Research Bioresources Cell Bank), and U87 human glioblastoma cell lines were incubated in Dulbecco’s Modified Eagle Medium (DMEM)/Ham’s F12 (Wako Pure Chemical Industries, Osaka, Japan), Eagle’s Minimum Essential Medium (EMEM; Wako Pure Chemical Industries, Osaka, Japan), and DMEM (Gibco/Thermo Fisher Scientific, Waltham, MA, USA) respectively, and supplemented with 10% fetal bovine serum (FBS; Sigma Aldrich, MO, USA). Jurkat human leukemic T-cell line was cultured in Roswell Park Memorial Institute (RPMI) 1640 (Wako Pure Chemical Industries, Osaka, Japan), supplemented with 10% FBS. PBMCs (Precision Bioservices, Frederick, MD, USA) were incubated in RPMI 1640 and supplemented with 10% human serum AB (HS) (Gemini, Woodland, CA, USA). All media were supplemented with 89 μg/mL streptomycin (Meiji Seika Pharma, Tokyo, Japan) at 37 °C in a humid atmosphere and 5% CO2. For each experiment, growing cells were plated at 4 × 10^4 cells/mL and 6 × 10^5 cells/mL into 24-well and 96-well microtiter tissue culture plates (Iwaki brand Asahi Glass Co., Chiba, Japan) respectively and incubated for 72 h before the addition of the drugs (the optimal cell number for cytotoxicity assays was determined in preliminary experiments). The stock solutions of the compounds and cisplatin (Sigma-Aldrich, St. Louis, MO, USA) in concentrations between 0.1–10 mM were prepared in dimethyl sulfoxide (DMSO; Wako Pure Chemical Industries, Osaka, Japan) and in H2O respectively, then were added to fresh culture medium. The concentration of DMSO and H2O in the final culture medium was 1% which had no effect on the cell viability.
(§2) The MTT (Dojindo Molecular Technologies, Kumamoto, Japan) assay was carried out using the U251, T98G, U87, Jurkat, and PBMC cells to determine the cytotoxicity of compounds 1–13 and cisplatin as previously described in the literature with small modifications. Treated cells were incubated with different concentrations (1–100 µM) of the compounds for 72 h at 37 °C in the CO2 incubator. About 100 µL (1.1 mg/mL) of MTT solution was added to each well and after further incubation for 4 h, formazan crystals formed. At the end of this period, the medium was removed and the formazan crystals were solubilized by the addition of 100 μL DMSO to each well. The absorbance was read on an Infinite M1000 plate reader (Tecan, Mannedorf, Switzerland) at a wavelength of 550 nm with background subtraction at 630 nm. All experiments were performed in triplicate and IC50 values were defined as the drug concentrations that reduced absorbance to 50% of control values.

[2] = system: T98G human glioblastoma cells; assay: MTT cytotoxicity assay, T98G cells; format: cell-based; details: for IC50: Homo sapiens, T98G, MTT, 72 h; for anticancer activity against T98G cells: at 100 µM concentration
Description: as §1, §2

[3] = system: U87 human glioblastoma cells; assay: MTT cytotoxicity assay, U87 cells; format: cell-based; details: for IC50: Homo sapiens, U-87 MG, MTT, 72 h; for anticancer activity against U87 cells: at 100 µM concentration
Description: as §1, §2

[4] = system: Jurkat human leukemic T-cells; assay: MTT cytotoxicity assay, Jurkat cells; format: cell-based
Description: as §1, §2

[5] = system: human peripheral blood mononuclear cells (PBMCs); assay: MTT cytotoxicity assay, PBMCs; format: cell-based; details: Homo sapiens, PBMC, 72 h
Description: as §1, §2

[6] = system: U251 cells; assay: Annexin V/ethidium homodimer III staining, apoptotic/necrotic cell detection; format: cell-based, human; details: 24 h; IC50 concentration (Figure 4 legend), 5 μM (method)
Description: U251 cells (4 × 10^4 cells/well) were seeded in each well of a 24-well plate with compound 10 and cisplatin at 5 μM concentration for 24 h. Then, the apoptotic/necrotic/healthy cells detection kit protocol was applied according to the manufacturer’s instructions (PromoKine, Heidelberg, Germany) with few modifications. Briefly, the cells were washed twice with 1 × binding buffer and then treated with FITC-Annexin V (5 μL), ethidium homodimer III (5 μL), and Hoechst 33342 (5 μL) for 20 min at room temperature in a protected-light environment. After washing in 1 × binding buffer, cells were analyzed under an all-in-one fluorescence microscope Biorevo Fluorescence BZ-9000 (Keyence, Osaka, Japan). Healthy cells, apoptotic cells, late apoptotic or necrotic cells, and necrotic cells were counted as previously described.

[7] = molecular target: T1, EGFR (Homo sapiens, UniProt P00533); assay: Kinase inhibition assay (ADP-Glo), EGFR; format: biochemical
T1 construct: purchased Promega Corporation
T1 sequence (P00533 25-1210): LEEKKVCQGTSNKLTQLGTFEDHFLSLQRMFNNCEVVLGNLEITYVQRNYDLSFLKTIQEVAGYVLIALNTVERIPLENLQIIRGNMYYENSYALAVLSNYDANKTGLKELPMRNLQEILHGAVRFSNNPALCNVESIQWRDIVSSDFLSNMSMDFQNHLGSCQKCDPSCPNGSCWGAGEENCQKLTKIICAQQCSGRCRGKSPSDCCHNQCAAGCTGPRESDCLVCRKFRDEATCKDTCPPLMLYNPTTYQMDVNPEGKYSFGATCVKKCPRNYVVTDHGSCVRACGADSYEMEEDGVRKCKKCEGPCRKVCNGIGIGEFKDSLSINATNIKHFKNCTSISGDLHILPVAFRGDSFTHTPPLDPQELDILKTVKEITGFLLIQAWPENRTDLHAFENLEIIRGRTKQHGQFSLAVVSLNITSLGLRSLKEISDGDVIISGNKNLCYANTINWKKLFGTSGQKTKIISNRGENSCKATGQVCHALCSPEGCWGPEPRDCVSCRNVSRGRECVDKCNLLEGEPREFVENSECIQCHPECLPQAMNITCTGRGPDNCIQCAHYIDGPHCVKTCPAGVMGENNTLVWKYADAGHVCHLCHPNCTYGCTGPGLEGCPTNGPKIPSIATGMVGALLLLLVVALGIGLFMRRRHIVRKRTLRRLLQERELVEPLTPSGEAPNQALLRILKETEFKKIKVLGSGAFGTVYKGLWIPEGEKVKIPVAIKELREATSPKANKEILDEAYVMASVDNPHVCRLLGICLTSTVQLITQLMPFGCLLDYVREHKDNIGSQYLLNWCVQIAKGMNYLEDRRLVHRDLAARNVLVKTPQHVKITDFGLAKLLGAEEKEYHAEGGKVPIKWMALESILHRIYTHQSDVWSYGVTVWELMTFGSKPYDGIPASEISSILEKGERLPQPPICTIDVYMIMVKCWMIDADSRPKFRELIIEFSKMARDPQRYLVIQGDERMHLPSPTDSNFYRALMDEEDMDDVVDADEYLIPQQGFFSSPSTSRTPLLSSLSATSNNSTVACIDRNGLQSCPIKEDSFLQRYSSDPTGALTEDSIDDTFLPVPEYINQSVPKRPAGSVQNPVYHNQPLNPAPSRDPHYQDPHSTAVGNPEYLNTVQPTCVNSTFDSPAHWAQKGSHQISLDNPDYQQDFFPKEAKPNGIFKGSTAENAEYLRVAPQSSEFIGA
Description: (§3) The kinase profiling assay protocol (TK1 and TK-2) was applied according to the manufacturer‘s instructions (Promega Corporation, Madison, WI, USA) with few modifications. In regard to this protocol, the EGFR, HER2, HER4, IGF1R, InsR, KDR, PDGFR-α, PDGFR-β, ABL1, BRK, BTK, CSK, FYN A, LCK, LYN B, and SRC kinase stocks in the kinase strips were diluted with 95 µL 2.5x kinase buffer and their substrate stock in the substrate strip was diluted with 15 µL of 100 µM ATP solutions. Then, the kinase reactions were performed using 2 µL of the kinase working stocks, 2 µL of the ATP/substrate working stocks, and 1 µL of compound solution (0.1–100 µM) or 5% DMSO solution in the 384-well plate. After 4 h of incubation at room temperature, the activity of kinases was detected using ADP-Glo Kinase Assay (Promega Corporation, Madison, WI, USA) according to the manufacturer‘s protocol. Briefly, 5 µL of ADP-Glo reagent was added into each well of 384-well plate and the mixture was incubated at room temperature for 40 min to stop the kinase reaction and deplete any ATP remaining. Then, 10 µL Kinase Detection Reagent was added and the mixture was incubated for a further 30 min to convert the kinase-produced ADP to ATP, and then to light.

[8] = molecular target: T2, HER4 (Homo sapiens, UniProt Q15303); assay: Kinase profiling assay (ADP-Glo), HER4; format: biochemical; details: 30 µM concentration
T2 construct: purchased Promega Corporation
Description: as §3, with “light. […]” for “light.”

[9] = molecular target: T3, IGF1R (Homo sapiens, UniProt P08069); assay: Kinase profiling assay (ADP-Glo), IGF1R; format: biochemical; details: 30 µM concentration
T3 construct: purchased Promega Corporation
T3 sequence (P08069 31-1367): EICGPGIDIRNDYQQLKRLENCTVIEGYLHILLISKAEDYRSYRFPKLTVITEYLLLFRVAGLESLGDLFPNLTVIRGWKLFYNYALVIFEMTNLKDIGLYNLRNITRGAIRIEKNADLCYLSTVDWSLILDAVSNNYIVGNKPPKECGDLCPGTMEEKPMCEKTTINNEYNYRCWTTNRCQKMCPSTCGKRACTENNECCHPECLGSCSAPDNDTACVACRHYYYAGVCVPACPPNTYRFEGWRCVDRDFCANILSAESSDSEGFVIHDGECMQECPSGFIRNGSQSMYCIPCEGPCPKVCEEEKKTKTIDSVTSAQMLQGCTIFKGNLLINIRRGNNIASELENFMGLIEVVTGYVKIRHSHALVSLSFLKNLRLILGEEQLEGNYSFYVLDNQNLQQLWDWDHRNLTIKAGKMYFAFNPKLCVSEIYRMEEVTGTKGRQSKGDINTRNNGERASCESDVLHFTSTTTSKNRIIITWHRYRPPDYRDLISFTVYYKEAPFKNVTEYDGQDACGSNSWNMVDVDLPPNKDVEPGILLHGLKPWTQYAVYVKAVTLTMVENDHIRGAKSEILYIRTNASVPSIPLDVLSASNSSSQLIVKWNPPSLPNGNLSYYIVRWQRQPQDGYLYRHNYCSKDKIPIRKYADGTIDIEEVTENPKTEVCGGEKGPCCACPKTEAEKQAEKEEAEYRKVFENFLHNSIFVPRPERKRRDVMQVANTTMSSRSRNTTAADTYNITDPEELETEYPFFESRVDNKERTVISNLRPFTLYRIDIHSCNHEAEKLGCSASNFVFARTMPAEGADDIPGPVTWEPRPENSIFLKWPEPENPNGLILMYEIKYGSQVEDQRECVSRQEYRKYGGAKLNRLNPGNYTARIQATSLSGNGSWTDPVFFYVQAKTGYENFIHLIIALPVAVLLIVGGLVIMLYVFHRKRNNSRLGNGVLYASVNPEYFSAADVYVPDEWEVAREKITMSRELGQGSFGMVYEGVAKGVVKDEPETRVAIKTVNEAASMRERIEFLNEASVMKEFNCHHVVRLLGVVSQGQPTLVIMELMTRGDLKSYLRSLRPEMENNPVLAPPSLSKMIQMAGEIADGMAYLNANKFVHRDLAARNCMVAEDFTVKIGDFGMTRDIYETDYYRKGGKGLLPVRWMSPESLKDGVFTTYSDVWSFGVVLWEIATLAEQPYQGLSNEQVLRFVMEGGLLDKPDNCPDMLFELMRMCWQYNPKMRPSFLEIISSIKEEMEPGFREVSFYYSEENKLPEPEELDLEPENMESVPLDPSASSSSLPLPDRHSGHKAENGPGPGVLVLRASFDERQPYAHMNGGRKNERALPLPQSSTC
Description: as §3, with “light. […]” for “light.”

[10] = molecular target: T4, BTK (Homo sapiens, UniProt Q06187); assay: Kinase profiling assay (ADP-Glo), BTK; format: biochemical; details: 30 µM concentration
T4 construct: purchased Promega Corporation
Description: as §3, with “light. […]” for “light.”

[11] = molecular target: T5, BRK (Homo sapiens, UniProt Q13882); assay: Kinase profiling assay (ADP-Glo), BRK; format: biochemical; details: 30 µM concentration
T5 construct: purchased Promega Corporation
Description: as §3, with “light. […]” for “light.”

[12] = molecular target: T6, LYN B (Homo sapiens, UniProt P07948); assay: Kinase profiling assay (ADP-Glo), LYN B; format: biochemical; details: 30 µM concentration
T6 construct: purchased Promega Corporation
Description: as §3, with “light. […]” for “light.”

[13] = molecular target: T7, SRC (Homo sapiens, UniProt P12931); assay: Kinase profiling assay (ADP-Glo), SRC; format: biochemical; details: 30 µM concentration
T7 construct: purchased Promega Corporation
Description: as §3, with “light. […]” for “light.”

[14] = molecular target: T8, HER2 (Homo sapiens, UniProt P04626); assay: Kinase profiling assay (ADP-Glo), HER2; format: biochemical; details: 30 µM concentration
T8 construct: purchased Promega Corporation
T8 sequence (P04626 23-1255): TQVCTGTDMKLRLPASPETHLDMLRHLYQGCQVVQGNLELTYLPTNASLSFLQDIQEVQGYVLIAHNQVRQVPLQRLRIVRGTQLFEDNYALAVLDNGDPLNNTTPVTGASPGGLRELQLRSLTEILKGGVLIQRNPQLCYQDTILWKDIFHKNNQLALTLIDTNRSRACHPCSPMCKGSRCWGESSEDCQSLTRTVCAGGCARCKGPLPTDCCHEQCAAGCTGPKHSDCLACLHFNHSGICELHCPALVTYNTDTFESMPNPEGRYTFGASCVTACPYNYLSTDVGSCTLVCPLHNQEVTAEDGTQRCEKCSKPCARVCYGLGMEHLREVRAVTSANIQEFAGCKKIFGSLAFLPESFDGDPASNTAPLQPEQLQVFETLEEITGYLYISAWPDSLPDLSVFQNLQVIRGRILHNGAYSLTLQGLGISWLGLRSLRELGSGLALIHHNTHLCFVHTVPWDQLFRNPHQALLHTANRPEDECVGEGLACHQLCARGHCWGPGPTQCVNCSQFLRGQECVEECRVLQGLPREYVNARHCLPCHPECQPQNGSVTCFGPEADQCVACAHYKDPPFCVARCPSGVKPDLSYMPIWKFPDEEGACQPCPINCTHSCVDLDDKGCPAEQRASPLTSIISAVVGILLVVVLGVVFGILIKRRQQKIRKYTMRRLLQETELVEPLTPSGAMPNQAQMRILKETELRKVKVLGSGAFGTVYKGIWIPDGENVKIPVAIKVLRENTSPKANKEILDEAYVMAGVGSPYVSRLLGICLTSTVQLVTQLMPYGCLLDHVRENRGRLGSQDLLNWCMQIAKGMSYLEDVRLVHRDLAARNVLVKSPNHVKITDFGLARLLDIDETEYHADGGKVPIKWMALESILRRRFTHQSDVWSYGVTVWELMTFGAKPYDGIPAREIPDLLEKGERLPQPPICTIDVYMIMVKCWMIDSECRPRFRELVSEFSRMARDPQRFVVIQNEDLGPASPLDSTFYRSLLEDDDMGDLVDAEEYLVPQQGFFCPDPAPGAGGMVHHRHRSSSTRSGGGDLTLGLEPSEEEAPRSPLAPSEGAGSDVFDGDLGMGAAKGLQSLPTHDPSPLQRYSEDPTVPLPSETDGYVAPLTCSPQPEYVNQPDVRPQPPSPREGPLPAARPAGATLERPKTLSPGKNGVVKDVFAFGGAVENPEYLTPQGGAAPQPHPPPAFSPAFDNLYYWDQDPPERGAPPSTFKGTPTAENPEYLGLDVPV
Description: as §3, with “light. […]” for “light.”

[15] = molecular target: T9, ABL1 (Homo sapiens, UniProt P00519); assay: Kinase profiling assay (ADP-Glo), ABL1; format: biochemical; details: 30 µM concentration
T9 construct: purchased Promega Corporation
T9 sequence (P00519 whole entry): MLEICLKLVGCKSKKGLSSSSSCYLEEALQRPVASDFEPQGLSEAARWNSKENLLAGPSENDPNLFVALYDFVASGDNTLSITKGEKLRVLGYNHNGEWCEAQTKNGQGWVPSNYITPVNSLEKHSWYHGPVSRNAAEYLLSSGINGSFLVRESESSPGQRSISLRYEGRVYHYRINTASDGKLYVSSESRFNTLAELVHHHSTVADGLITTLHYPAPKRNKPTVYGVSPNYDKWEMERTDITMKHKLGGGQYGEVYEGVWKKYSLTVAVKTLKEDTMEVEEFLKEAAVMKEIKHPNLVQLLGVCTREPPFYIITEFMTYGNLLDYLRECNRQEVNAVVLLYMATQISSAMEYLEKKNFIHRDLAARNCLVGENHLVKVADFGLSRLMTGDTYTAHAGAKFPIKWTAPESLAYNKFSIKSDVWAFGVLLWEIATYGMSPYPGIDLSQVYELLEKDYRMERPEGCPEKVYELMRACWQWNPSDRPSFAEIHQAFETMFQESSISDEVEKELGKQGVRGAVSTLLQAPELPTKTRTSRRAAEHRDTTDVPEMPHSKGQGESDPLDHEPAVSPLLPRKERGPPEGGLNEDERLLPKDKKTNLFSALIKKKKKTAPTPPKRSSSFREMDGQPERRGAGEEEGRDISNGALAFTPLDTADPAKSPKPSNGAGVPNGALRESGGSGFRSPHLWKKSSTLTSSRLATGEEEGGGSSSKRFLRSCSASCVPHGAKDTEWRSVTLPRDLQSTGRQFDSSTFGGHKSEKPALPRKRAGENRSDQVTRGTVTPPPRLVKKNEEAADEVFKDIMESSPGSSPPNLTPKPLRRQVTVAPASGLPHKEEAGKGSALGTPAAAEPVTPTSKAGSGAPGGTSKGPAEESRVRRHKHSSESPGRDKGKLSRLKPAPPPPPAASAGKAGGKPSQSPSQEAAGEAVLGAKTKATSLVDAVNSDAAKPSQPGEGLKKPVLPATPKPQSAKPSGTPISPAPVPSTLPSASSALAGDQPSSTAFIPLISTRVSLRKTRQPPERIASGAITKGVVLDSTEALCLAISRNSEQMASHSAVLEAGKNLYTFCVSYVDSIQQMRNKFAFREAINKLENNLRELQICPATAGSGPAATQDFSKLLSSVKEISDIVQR
Description: as §3, with “light. […]” for “light.”

[16] = molecular target: T10, FYN A (Homo sapiens, UniProt P06241); assay: Kinase profiling assay (ADP-Glo), FYN A; format: biochemical; details: 30 µM concentration
T10 construct: purchased Promega Corporation
Description: as §3, with “light. […]” for “light.”

[17] = system: K562 CML cell line; parameters: method as in PMID 31574910; details: previously reported by the authors; read-out: IC50, cytotoxic activity against K562 CML cell line; cited from earlier work
[18] = molecular target: ABL1 kinase; parameters: method as in PMID 31574910; details: previously reported by the authors; read-out: ABL1 kinase inhibition IC50; cited from earlier work
[19] = system: K562 cells; parameters: method as in PMID 31574910; details: previously reported by the authors; cited from earlier work

- EGFR inhibition relative to InsR inhibition ([7]; 30 µM concentration, stronger inhibition of EGFR than InsR): approximately 2 fold
- IC50 ([7]; ADP-Glo kinase assay): 9.43 µM
- HER4 inhibition [8]: no significant inhibition
- IGF1R inhibition [9]: no significant inhibition
- BTK inhibition [10]: no significant inhibition
- BRK inhibition [11]: no significant inhibition
- LYN B inhibition [12]: no significant inhibition
- SRC inhibition [13]: no significant inhibition
- HER2 inhibition [14]: moderate
- ABL1 inhibition [15]: moderate
- FYN A inhibition [16]: moderate
- melting point: 240 to 243 °C
SMILES: C[C@@H](NCC1(C)C(O)CCC2(C)C1CCC1(C)C2CC=C2C3CC(C)(C)CCC3(C(=O)O)CCC21C)c1ccccc1 (stereo partly drawn) [Compound 10, 10-Hydroxy-2,2,6a,6b,9,12a-hexamethyl-9-[(((R)-1-phenylethyl)amino)methyl]-1,2,3,4,4a,5,6,6a,6b,7,8,8a,9,10,11,12,12a,12b,13,14b-icosahydropicene-4a-carboxylic acid]
- IC50 [1]: 5.82 ± 1.66 µM
- IC50 [2]: 8.19 ± 2.42 µM
- IC50 [3]: 17 ± 4.92 µM
- IC50 ([4]; Homo sapiens, Jurkat, MTT, 72 h): 3.56 ± 1.45 µM
- SI (selectivity index) ([4]; SI = IC50 for PBMCs/IC50 for Jurkat cells): 7.90
- IC50 [5]: 28.1 ± 5.05 µM
- apoptosis in U251 cells [6]: 10.29%

SMILES: CC1(C)CC[C@]2(C(=O)OCc3ccccc3)CC[C@]3(C)C(=CC[C@@H]4[C@@]5(C)CC[C@H](O)C(C)(C)[C@@H]5CC[C@]43C)[C@@H]2C1 [Compound 5]
- IC50 [1]: > 100 µM
- anticancer activity against U251 cells [1]: no significant anticancer activity
- IC50 [2]: > 100 µM
- anticancer activity against T98G cells [2]: no significant anticancer activity
- IC50 [3]: > 100 µM
- anticancer activity against U87 cells [3]: no significant anticancer activity
- IC50 [17]: 5.46 µM
- IC50 [18]: 1.44 µM

SMILES: CC1(C)CC[C@]2(C(=O)OCc3cc(C(F)(F)F)cc(C(F)(F)F)c3)CC[C@]3(C)C(=CC[C@@H]4[C@@]5(C)CC[C@H](O)[C@@](C)(C=O)[C@@H]5CC[C@]43C)[C@@H]2C1 [Compound 8]
- IC50 [1]: > 100 µM
- anticancer activity against U251 cells [1]: no significant anticancer activity
- IC50 [2]: > 100 µM
- anticancer activity against T98G cells [2]: no significant anticancer activity
- IC50 [3]: > 100 µM
- anticancer activity against U87 cells [3]: no significant anticancer activity
- IC50 [17]: 4.78 µM
- apoptosis in K562 cells [19]: 24%
